Experimental data: publication PMC8746705, “Comparison of Experimental Strategies to Study L-Type Amino Acid Transporter 1 (LAT1) Utilization by Ligands” (Molecules, 2021)

Columns and labels:
[1] = biological target: T1, LAT1 (Mus musculus, UniProt Q9Z127); experiment: Cis-inhibition of radiolabelled LAT1-probe substrate uptake into BV2 cells; format: cell-based; details: for IC50: 5 min, mean ± SD
Method: (§1) After removal of the culture medium, the BV2 cells were carefully washed with pre-warmed HBSS (Hank’s balanced salt solution) containing 125.0 mM choline chloride, 4.8 mM KCl, 1.2 mM MgSO4, 1.2 mM KH2PO4, 1.3 mM CaCl2, 5.6 mM glucose, and 25.0 mM HEPES (pH 7.4 adjusted with 1 M NaOH). Pre-incubation was done with 500 μL of pre-warmed HBSS at 37 °C for 10 min before adding substrates (250 μL in HBSS) for the uptake experiments.
The ability of compounds 1–15 to inhibit the uptake of a known LAT1 substrate [^14C]-L-leucine was then evaluated by incubating the cells at 37 °C for 5 min in uptake buffer pH 7.4 (250 μL) containing 0.2 µCi/mL of [^14C]-L-leucine, or 2 µCi/mL of [^3H]-L-methionine, [^3H]-L-tryptophan or [^3H]-L-kynurenine (PerkinElmer, Waltham, MA, USA) and 0.1–1000 μM of the studied compound (or HBSS as blank). After incubation, the uptake was stopped by adding 250 µL of ice-cold HBSS, and the cells were washed two times with ice-cold HBSS. The cells were then lysed with 500 μL of NaOH (0.1 M) for 60 min and the lysate was mixed with 3.5 mL of Emulsifier safe cocktail (Ultima Gold, PerkinElmer, Waltham, MA, USA). The radioactivity in the cells was measured by liquid scintillation counting (MicroBeta^2 counter, PerkinElmer Waltham, MA, USA). Half of the maximum inhibitory concentration (IC50) values were calculated by nonlinear regression analysis (fitting the curve to log (concentration) vs. remaining normalized […]).

[2] = biological target: T1, LAT1; experiment: Inhibition type of [14C]-L-Leu uptake (Hanes-Woolf plots) in BV2 cells; format: cell-based; details: for Vmax of [14C]-L-Leu uptake: 0.010–0.20 µM [14C]-L-Leu in the presence of the compound at its IC50, mean ± SD, n = 3–4; for Vmax of [14C]-L-Leu uptake / Inhibition Type: BV2; for Inhibition Type: of [14C]-L-Leu uptake, concluded from Km and Vmax
Method: as §1
To evaluate the inhibition type of studied compounds, the BV2 cells were incubated with 0.010–0.20 μM [^14C]-L-leucine together with the studied compound. The concentration of compounds was selected according to the compound-specific IC50 values. The experiment was then carried out as described for the [^14C]-L-leucine uptake above and the radioactivity was measured by liquid scintillation counting. Hanes-Woolf plots were created by setting the ratio of initial substrate concentration to the reaction velocity ([S]/v) against [^14C]-L-leucine concentration (µM). The linear regression was used to calculate Km value (negative value of x-intercept) and Vmax value (1/slope) for [^14C]-L-leucine.

[3] = Time-dependent cellular uptake of compounds into BV2 cells (LC-MS/MS); format: cell-based, mouse; details: mouse, BV2 microglia cells, 100 µM compound, 1–60 min, mean ± SD, n = 3, read-out: T½ of cellular uptake
Method: (§2) For the time-dependent cellular uptake experiments, the BV2 cells on 24-well plates were incubated with studied compounds (100 μM) in a pre-warmed HBSS buffer (250 μL) at 37 °C for 1–60 min. Subsequently, the cells were washed three times with an ice-cold HBSS and lysed with 250 μL of NaOH (0.1 M) for 60 min. The lysates were diluted with acetonitrile (ACN) including the selected internal standard (diclofenac to all compounds) with a ratio of 1:3 and centrifuged at 10,000× g for 10 min. The samples were analyzed by the liquid chromatography-tandem mass spectrometric (LC-MS/MS) methods as described below. The concentrations of each compound in cell lysates were calculated from the standard curve that was prepared by spiking known amounts of compounds to ACN including the selected internal standard and then normalized with protein concentration. The protein concentrations on each plate were determined as a mean of three samples by Bio-Rad Protein Assay, based on the Bradford dye-binding method, using bovine serum albumin (BSA) as a standard protein and measuring the absorbance (595 nm) by multiplate reader (EnVision, Perkin Elmer, Inc., Waltham, MA, USA).
(§3) The studied compounds (1–15) were analyzed by using Agilent 1200 Series Rapid Resolution LC System together with an Agilent 6410 Triple Quadrupole Mass Spectrometer equipped with an electrospray ionization source (Agilent Technologies, Santa Clara, CA, USA). The chromatographic separations of analytes were achieved by using a reversed-phase Zobrax SB-C18 column (50 mm × 2.1 mm, 1.8 μm; Agilent Technologies, Santa Clara, CA, USA) by eluting the samples with 0.1% formic acid in water (A) and 0.1% formic in ACN (B). Labetalol and diclofenac were used as internal standards (ISTD) for the prodrugs and parent drugs, respectively. The transitions used for the quantification at the positive ion mode and chromatographic conditions of each compound and their parent drugs are listed in Table S1. The methods of compounds 1–11 have been reported earlier, while the methods of compounds 12–15 are reported herein for the first time.

[4] = test system: immortalized mouse microglia (BV2); experiment: as above; format: cell-based
Method: as §2, §3

[5] = biological target: T1, LAT1; experiment: Concentration-dependent cellular uptake into BV2 cells, Eadie–Hofstee analysis, Transport Type 1 (LAT1); format: cell-based; details: 1–200 µM, 30 min, BV2; Eadie–Hofstee; mean ± SD, n = 3
Method: (§4) For the concentration-dependent cellular uptake experiments, the BV2 cells on 24-well plates were incubated with studied compounds (1–200 μM) in pre-warmed HBSS buffer (250 μL) at 37 °C for 30 min. The experiment was then carried out as described for the time-dependent uptake above and the concentration of studied compounds in the cell lysate was analyzed by the LC-MS/MS methods described above and the results were normalized to the total protein concentration. The distinct transport mechanisms were separated from the Michaelis-Menten kinetics by using Eadie–Hofstee plot.
as §3

[6] = test system: Transport Type 2; experiment: Concentration-dependent cellular uptake into BV2 cells, Eadie–Hofstee analysis, Transport Type 2; format: cell-based, mouse; details: 1–200 µM, 30 min, mean ± SD, n = 3
Method: as §4, §3

[7] = biological target: T1, LAT1; experiment: Cellular uptake of compounds in the presence of LAT1-inhibitor (KMH-233); format: cell-based; details: 100 µM compound, 100 µM KMH-233, 30 min, BV2
Method: The competitive uptake in the presence of LAT1-inhibitor (KMH-233) was carried out as described above with HBSS buffer solution containing 100 µM of the studied compounds. The cells were pre-incubated with 100 µM LAT1-inhibitor for 10 min and the incubation mixture was removed before adding the studied compound and LAT1-inhibitor on the cells. The competitive uptake (30 min) with the inhibitor was then carried out as the normal uptake described above. The amounts of studied compounds were analyzed by the LC-MS method and calculated from the spiked standard curve and normalized with the protein concentrations.

[8] = biological target: T1, LAT1; experiment: Cellular uptake of L-leucine after pre-incubation of BV2 cells with the compounds; format: cell-based; details: 100 µM (L-glutamine 2 mM) pre-incubated 10 min or 3 h, L-leucine 1–400 µM, 5 min
Method: The ability of compounds 1–15 to affect the uptake of a known LAT1 substrate L-leucine was evaluated by pre-incubating the BV2 cells at 37 °C for 10 min or 3 h with uptake buffer pH 7.4 (250 μL) containing 100 µM of compounds 1–15 or thyroxin (T4), or known nuclear receptor inducible compounds, phenobarbital (constitutive androstane receptor, CAR), and dexamethasone (pregnane X receptor, PXR) as controls. […] After incubation, the reaction was stopped by adding 250 µL of ice-cold HBSS, and the cells were washed two times with ice-cold HBSS. The cells were then lysed with 500 μL of 0.1 M NaOH (60 min) and the lysate was mixed with 3.5 mL of Emulsifier safe cocktail (Ultima Gold, PerkinElmer, Waltham, MA, USA). The radioactivity in the cells was measured by liquid scintillation counting (MicroBeta^2 counter, PerkinElmer Waltham, MA, USA). The results were multiplied by the amount of un-labeled proportion of L-leucine in each sample.

[9] = test system: LAT1; experiment: Quantitative expression of LAT1 on the BV2 plasma membrane (LC-MS proteomics); format: cell-based, mouse; details: BV2 cells incubated 24 h; normalized to Na+/K+ATPase; compared to untreated control
Method: The protein expression levels of LAT1, in the plasma membrane fractions of BV2 cells were quantified using multiplexed MRM analysis according to the protocol described by Uchida et al.. First, the crude membrane fractions were isolated from three distinct sets of cell culture plates using Membrane Protein Extraction Kit (BioVision Incorporated, Milpitas, CA, USA) according to the manufacturer’s instructions. The protein content for each fraction was measured by Bio-Rad Protein Assay, based on the Bradford dye-binding method (EnVision, Perkin Elmer, Inc., Waltham, MA, USA). A total amount of 50 µg protein from each fraction was solubilized/denatured in 7 M guanidine hydrochloride, 0.5 M Tris-HCl and 10 mM EDTA-Na. The proteins were then reduced by dithiothreitol (1:50, w/w) and S-carboxymethylated by iodoacetamide (1:20, w/w). The alkylated proteins were precipitated by methanol/chloroform/water (4:1:3) and centrifuged at 18,000× g for 5 min at 4 °C. The pellet was resuspended in 6 M urea and mixed for 10 min at room temperature before the dilution with 0.1 M Tris-HCl (pH 8.5) to a final concentration of 1.2 M urea, and dissolved completely by intermittent sonication (Branson 3510, Danbury, CT, USA). The dissolved proteins were first digested with LysC (1/100, w/w) and 0.05% ProteaseMax (Promega Biotech AB, Nacka, Sweden) for 3 h at room temperature. Then, the samples were spiked with 10 µL (30 fmol) of the labelled peptides for absolute quantification (JPT Peptide Technologies GmbH, Berlin, Germany) (Table S2). The samples were incubated with (1/100, w/w) TPCK-Trypsin (Promega Biotech AB, Nacka, Sweden) for 18 h at 37 °C. The tryptic digestion was then quenched by adding 40 µL of 5% formic acid. The samples were then centrifuged at 18,000× g for 5 min at 4 °C, and the supernatants were transferred to vials for analysis.
The digested peptides were analyzed using an ultra-performance liquid chromatography system coupled with a triple quadrupole mass spectrometer with a heated electrospray ionization source in the positive mode (UPLC 1290 and MSD 6495, Agilent Technologies, Santa Clara, CA, USA). A total amount of 20 µL of the digested peptides (10 µg) was separated using AdvanceBio Peptide Map 2.1 × 250 mm, 2.7 μm column (Agilent Technologies, Santa Clara, CA, USA) and LC eluents of 0.1% formic acid in water (A) and acetonitrile (B). The peptides were eluted following a constant flow rate of 0.3 mL/min and a gradient of 2–7% B for 2 min, followed by 7–30% B for 48 min, 30–45% B for 3 min, and 45–80% B for 2.5 min before re-equilibrating the column again for 4.5 min. LAT1 was quantified based on the ratio between the light and heavy standard peptides, as described previously (Table S2). Data was acquired using Agilent MassHunter Workstation Acquisition (Agilent Technologies, Data Acquisition for Triple Quadrupole, version B.03.01) and processed by using Skyline software (version 20.1). The results were normalized to a housekeeping protein Na+/K+ATPase and expressed as fmol/µg of the total amount of protein in the samples.

[10] = probe [3H]-L-Kynu, n = 3–4, read-out: IC50 of [3H]-L-Kynu uptake
[11] = probe [3H]-L-Met, n = 3–4, read-out: IC50 of [3H]-L-Met uptake
[12] = probe [3H]-L-Trp, n = 3–4, read-out: IC50 of [3H]-L-Trp uptake
[13] = 100 µM compound, 1–60 min, mean ± SD, n = 3

T1 sequence (Q9Z127 whole entry): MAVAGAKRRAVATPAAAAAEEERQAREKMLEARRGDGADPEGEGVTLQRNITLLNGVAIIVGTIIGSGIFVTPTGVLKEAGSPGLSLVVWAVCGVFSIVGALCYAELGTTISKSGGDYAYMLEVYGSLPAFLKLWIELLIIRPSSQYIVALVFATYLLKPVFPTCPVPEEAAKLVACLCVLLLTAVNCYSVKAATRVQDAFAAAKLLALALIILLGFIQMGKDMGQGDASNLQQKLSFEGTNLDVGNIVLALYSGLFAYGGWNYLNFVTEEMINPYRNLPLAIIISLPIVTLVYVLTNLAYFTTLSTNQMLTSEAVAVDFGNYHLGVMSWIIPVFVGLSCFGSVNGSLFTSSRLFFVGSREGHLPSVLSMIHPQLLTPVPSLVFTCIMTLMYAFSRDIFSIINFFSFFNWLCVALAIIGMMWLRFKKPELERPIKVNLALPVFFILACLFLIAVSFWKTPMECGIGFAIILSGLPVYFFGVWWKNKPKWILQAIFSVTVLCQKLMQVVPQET
T1 sequence (P10852 whole entry partner): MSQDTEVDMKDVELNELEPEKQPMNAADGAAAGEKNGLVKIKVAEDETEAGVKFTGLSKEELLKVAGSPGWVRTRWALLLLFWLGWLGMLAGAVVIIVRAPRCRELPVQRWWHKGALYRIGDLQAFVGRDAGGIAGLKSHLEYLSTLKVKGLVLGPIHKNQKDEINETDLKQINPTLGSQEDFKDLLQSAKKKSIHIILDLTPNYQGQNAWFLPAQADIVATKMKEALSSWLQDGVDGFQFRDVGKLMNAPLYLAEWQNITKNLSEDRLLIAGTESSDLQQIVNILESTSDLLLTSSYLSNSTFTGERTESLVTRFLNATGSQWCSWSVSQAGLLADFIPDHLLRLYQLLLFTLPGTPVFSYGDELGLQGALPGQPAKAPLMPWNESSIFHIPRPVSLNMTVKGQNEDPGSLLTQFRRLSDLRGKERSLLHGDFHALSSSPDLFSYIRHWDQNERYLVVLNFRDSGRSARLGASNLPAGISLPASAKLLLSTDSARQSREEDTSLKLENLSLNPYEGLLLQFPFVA

| Structure (SMILES) | IC50 [1, 10] [µM] | IC50 [1, 11] [µM] | IC50 [1, 12] [µM] | Vmax of [14C]-L-Leu uptake [2] [nmol/min/mg] | Inhibition Type [2] | half-life at 100 μM [3] [min] | Max. cellular uptake [4, 13] | Km [5] [µM] | Transport Type 1 (LAT1) Vmax [5] [pmol/mg/min] | Cellular uptake in the presence of LAT1-inhibitor [7] | Effect on cellular uptake of L-Leu after pre-incubation [8] | LAT1 expression on the plasma membrane [9] | also measured |
| --- | --- | --- | --- | --- | --- | --- | --- | --- | --- | --- | --- | --- | --- |
| CC(C(=O)Nc1ccc(CC(N)C(=O)O)cc1)c1cccc(C(=O)c2ccccc2)c1 (stereo not shown) [Compound 3] | 11.9 ± 1.3 | 17.1 ± 1.9 | 39.2 ± 1.5 | 2.851 ± 0.035 | Non-competitive | 1.5 ± 0.67 | 1.96 ± 0.14 nmol/mg of protein | 1.9 ± 0.3 | 3.7 ± 0.5 | inhibited significantly | decreased the amount of L-Leu inside the cells |  | Inhibition of LAT1-probe substrate uptake / LAT1 affinity ([1]; over all probe substrates): lower affinity and higher IC50 values; IC50 ([1]; probe [14C]-L-Leu, n = 3–4, read-out: IC50 of [14C]-L-Leu uptake): 26 ± 1.1 µM; Km [6]: 148 ± 41 µM; Transport Type 2 Vmax [6]: 49 ± 9 pmol/mg/min |
| CC(C)Cc1ccc([C@H](C)C(=O)Nc2cccc(C[C@H](N)C(=O)O)c2)cc1 [Compound 10] | 7.7 ± 1.1 | 9.6 ± 1.6 | 43.4 ± 1.5 | 2.151 ± 0.066 | Mixed type | < 1 | 4.14 ± 0.31 nmol/mg of protein | 22 ± 6 | 205 ± 41 | only reductive trends were seen |  |  | IC50 ([2]; Table 2, compound concentration used in the inhibition type study, corresponding to IC50 of [14C]-L-Leu uptake): 13 µM; T½ of cellular uptake [4, 13]: 0.87 ± 0.55 min; LAT1-substrate or LAT1-binder ([4]; concluded from time-dependent uptake, 100 µM): LAT1-binders rather than substrates |
| NC(=O)CC[C@H](N)C(=O)O [L-glutamine, reference compound] |  |  |  |  |  |  |  |  |  |  | decreased the amount of L-Leu inside the cells |  |  |
| C[C@@H]1C[C@H]2[C@@H]3CCC4=CC(=O)C=C[C@]4(C)[C@@]3(F)[C@@H](O)C[C@]2(C)[C@@]1(O)C(=O)CO [dexamethasone, reference compound] |  |  |  |  |  |  |  |  |  |  |  | did not have any effect on LAT1 expression |  |
| CCC1(c2ccccc2)C(=O)NC(=O)NC1=O [phenobarbital, reference compound] |  |  |  |  |  |  |  |  |  |  |  | did not have any effect on LAT1 expression |  |
